Source: patent US8980924B2, “Non-retinoid RBP4 antagonist for treatment of age-related macular degeneration and stargardt disease” (The Trustees of Columbia University in the City of New York, priority 2010, dated 2015)

Key:
serum RBP4 and retinol = serum RBP4 and retinol (Rattus norvegicus, UniProt P04916); settings: reference 15; cited from earlier work
RBP4-TTR interaction = biological target: T1, RBP4-TTR interaction (Homo sapiens, UniProt P02753); test: TR-FRET (HTRF) RBP4-TTR interaction assay, agonist mode; type: biochemical; settings: without retinol, FIG. 8
T1 construct: made in house; host or cells: E. coli
Excerpt: TR-FRET (Time-Resolved Fluorescence Resonance Energy Transfer) is an assay format that can be used in characterization of compounds affecting protein-protein interactions (31-33). […] In the presence of retinol, RBP4-TTR interaction induces FRET that can be registered as increased ratio of […] fluorescence signals. Binding of a desired RBP4 antagonist displaces retinol and induces hindrance for RBP4-TTR interaction resulting in the decreased FRET signal (FIG. 7).
The inventors developed an assay using E. coli-expressed MBP-tagged RBP4 and commercially available TTR labeled directly with Eu3+ cryptate. In addition to MBP-RBP4 and Eu3+ (K)-TTR, a detector reagent anti-MBP-d2 was present in the mix. The assay was first optimized in the agonist mode; sensitivity and dynamic range of the assay was […] in respect to RBP4, TTR and detection reagent concentrations.

A2E production = settings: Abca4−/− mice, reference 11; cited from earlier work
[1] = tested on: bisretinoids (A2E/isoA2E, A2-DHP-PE, atRAL di-PE); test: Bisretinoid levels in eyes of treated mice (tissue extraction and HPLC); type: in vivo; settings: orally dosed for 3 weeks at 30 mg/kg
Excerpt: (§1) The Abca4−/− mouse model manifests accelerated accumulation of lipofuscin in the RPE and is considered a preclinical efficacy model for a drug reducing lipofuscin accumulation. […] There was approximately a 70% reduction in the serum RBP4 level in treated animals (FIG. 11). Additionally, the inventors discovered that that the levels of A2E/isoA2E were reduced by approximately 50% in treated mice (FIG. 12).
Abca4/Abcr null mutant mice (albino) homozygous for Rpe65-Leu450 are bred genotyped and housed. Posterior eyecups of mice and RPE/choroids harvested from human donor eyes (National Disease Research Interchange, Philadelphia Pa.) are homogenized in phosphate buffered saline (PBS) using a glass tissue grinder and extracted in chloroform/methanol (2:1). […] An Alliance system (Waters, Corp, Milford, Mass.) equipped with 2695 Separation Module, 2996 Photodiode Array Detector, a 2475 Multi λ Fluorescence Detector and operating with Empower® software is used for HPLC analysis. […] HPLC quantification is carried out using the Empower® software to determine peak areas. […] Molar quantity per murine eye is determined using calibration curves constructed from known concentrations of purified external standards and by normalizing to the ratio of the HPLC injection volume (10 μL) versus total extract volume.

ERG b-wave = ERG b-wave after photobleaching; type: in vivo; settings: FIG. 10
insulin sensitivity = settings: mouse diabetes models; cited from earlier work
serum RBP4 = biological target: T2, serum RBP4 (Mus musculus, UniProt Q00724); test: Serum RBP4 level in treated mice; type: in vivo; settings: orally dosed for 3 weeks at 30 mg/kg; wild-type and Abca4−/− mice; FIG. 11
T2 construct: from tissue; host or cells: mouse serum (in vivo, oral dosing)
Excerpt: as §1

induction of RBP4-TTR interaction (RBP4-TTR interaction) | effect on ERG b-wave after photobleaching (ERG b-wave) | reduction in the serum RBP4 level (serum RBP4) [%] | Compound | effect on serum RBP4 and retinol (serum RBP4 and retinol) | effect on A2E production (A2E production) | levels of A2-DHP-PE and atRAL di-PE [1] | effect on insulin sensitivity (insulin sensitivity)
did not induce RBP4-TTR interaction |  |  | CC1=C(/C=C/C(C)=C/C=C/C(C)=C/C(=O)Nc2ccc(O)cc2)C(C)(C)CCC1 [fenretinide, N-(4-hydroxy-phenyl)retinamide] | reduce serum RBP4 and retinol | reduced A2E production |  | 
did not induce RBP4-TTR interaction | does not reduce ERG b-wave | ~70 | O=C(O)c1ccccc1NC(=O)N1CCC(c2ccccc2C(F)(F)F)CC1 [Compound 1, 2(4-(2-(trifluoromethyl)phenyl)piperidine-1-carboxamido)benzoic acid] |  |  | also reduced | did not improve insulin sensitivity
